According to publication PMC10606064, “2-Aminothiazole-Flavonoid Hybrid Derivatives Binding to Tau Protein and Responsible for Antitumor Activity in Glioblastoma” (International Journal of Molecular Sciences, 2023):

Tested on: U87 shCTRL cells
Assay: 2D random cell motility assay, U87 shCTRL
Type: cell-based, human
Conditions: 1.4 µM of compound 2, 1.6 µM of compound 9
Experimental: Cell motility was recorded by time-lapse videomicroscopy, as previously described. Briefly, cells were trypsinized and then seeded on Fibronectin pre-coated 24-well plates at 10^4 cells per well and allowed to adhere at 37 °C for 2 h in a 5% CO2 incubator. The cells were briefly rinsed in imaging medium (EMEM containing 10% FBS) to remove unattached cells before imaging. For conditions using compounds, agents were added to cells 15 min before launching the recording of the time-lapse series. Next, the plates were placed on an inverted wide-field Nikon microscope equipped with a 10× air objective (NA = 0.3) at 37 °C in 5% CO2. For all conditions, 61 frames of four fields were acquired using a CCD camera (Coolsnap HQ camera, Photometrics, Tucson, AZ, USA) driven by NIS elements AR 2.30 software (Nikon, Heidelberg, Germany). Migration tracks (n = 60–80 cells) were used to calculate total migration distance, distance to origin, velocity, and directional persistence of cell migration. Velocity was calculated as the total migration distance divided by 600 (600 min is total time of experiment). The distance to origin was determined as the net translocation between the initial and the final position. Directional persistence was calculated as the ratio of the distance to origin to that of the total distance migration.

With `Nc1nc2ccc3oc(-c4cccc(Oc5ccccc5)c4)cc(=O)c3c2s1` [Compound 2, 2-amino-7-(3-phenoxyphenyl)-9H-chromeno [6,5-d]thiazol-9-one] the “decrease in distance to origin” value was 25% and the decrease in velocity was 15%.
